From PMC12041525, “Mechanistic studies of mycobacterial glycolipid biosynthesis by the mannosyltransferase PimE” (Nature Communications, 2025)

Target: T1, MaPimE (Mycobacteroides abscessus, UniProt A0ABD7HTP3)
T1 construct: gene D2E76_03800; full-length WT, His-tagged, pNYCOMPSC23, E. coli BL21(DE3) pLysS; membrane fraction (kinetics) or DDM-purified in MSP1E3D1/POPC nanodiscs with Fab-E6 (cryo-EM); 46 kDa
Experiment: cryo-EM structure of the complex, […] Å
Assay type: binding
Details: nanodisc, Fab-E6 bound; formed from added PPM; only first three prenyl units resolved

T1 sequence (A0ABD7HTP3 entry or part of it): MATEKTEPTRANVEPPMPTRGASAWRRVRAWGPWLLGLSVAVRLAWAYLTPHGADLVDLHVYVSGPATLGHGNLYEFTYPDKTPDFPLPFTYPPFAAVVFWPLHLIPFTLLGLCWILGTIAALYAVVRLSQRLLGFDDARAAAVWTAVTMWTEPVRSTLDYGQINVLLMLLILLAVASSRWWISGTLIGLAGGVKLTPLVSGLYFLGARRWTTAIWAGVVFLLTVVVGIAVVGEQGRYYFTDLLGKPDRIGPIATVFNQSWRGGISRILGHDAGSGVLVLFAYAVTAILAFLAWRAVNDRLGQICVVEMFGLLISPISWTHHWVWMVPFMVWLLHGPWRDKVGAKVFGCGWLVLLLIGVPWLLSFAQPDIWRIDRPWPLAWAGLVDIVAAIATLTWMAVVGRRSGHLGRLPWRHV

CC(C)=CCC/C(C)=C/CC/C(C)=C\CC/C(C)=C\CC/C(C)=C\CC/C(C)=C\CC/C(C)=C\CC/C(C)=C\CC/C(C)=C\CC/C(C)=C\COP(=O)(O)O [PP, polyprenyl phosphate]
cryo-EM structure of the complex, 3.5 Å: led us to interpret it as the PP portion of the PPM donor
